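96-well plates; 48 h exposure; 5 concentrations. Endpoints by linear interpolation between flanking doses. Not reached: highest tested concentration assigned. TGI is the concentration that stops growth completely.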
Columns and labels:
Experiment in all cases: NCI tumour cell line growth inhibition, 48 h
[1] = tested on: CCRF-CEM leukemia
[2] = tested on: M19-MEL melanoma
[3] = tested on: OVCAR-5 ovarian
[4] = tested on: MOLT-4 leukemia
[5] = tested on: OVCAR-4 ovarian
[6] = tested on: SNB-19 CNS
[7] = tested on: A549 NSCLC
[8] = tested on: LOX IMVI melanoma
[9] = tested on: COLO 205 colon
[10] = tested on: SW-620 colon
[11] = tested on: HOP-92 NSCLC
[12] = tested on: M14 melanoma
[13] = tested on: SK-MEL-28 melanoma
[14] = tested on: HCT-116 colon
[15] = tested on: SK-MEL-5 melanoma
[16] = tested on: IGROV1 ovarian
[17] = tested on: A498 renal
[18] = tested on: UACC-257 melanoma
[19] = tested on: HCT-15 colon
[20] = tested on: 786-0 renal
[21] = tested on: ACHN renal
[22] = tested on: UACC-62 melanoma
[23] = tested on: SR leukemia
[24] = tested on: CAKI-1 renal
[25] = tested on: NCI-H23 lung
[26] = tested on: OVCAR-3 ovarian
[27] = tested on: TK-10 renal
[28] = tested on: HOP-18 NSCLC
[29] = tested on: SF-268 CNS
[30] = tested on: SK-OV-3 ovarian
[31] = tested on: RPMI-8226 leukemia
[32] = tested on: DMS 273 small cell lung
[33] = tested on: DLD-1 colon
[34] = tested on: UO-31 renal
[35] = tested on: HT29 colon
[36] = tested on: HL-60(TB) leukemia
[37] = tested on: SF-295 CNS
[38] = tested on: NCI-H226 lung
[39] = tested on: OVCAR-8 ovarian
[40] = tested on: MALME-3M melanoma
[41] = tested on: SN12C renal
[42] = tested on: K-562 leukemia
[43] = tested on: LXFL 529 NSCLC
[44] = tested on: KM20L2 colon
[45] = tested on: HOP-62 NSCLC
[46] = tested on: U251 CNS
[47] = tested on: DMS 114 small cell lung
[48] = tested on: HCC-2998 colon
[49] = tested on: NCI-H460 lung
[50] = tested on: SNB-75 CNS
[51] = tested on: SK-MEL-2 melanoma
[52] = tested on: BT-549 breast
[53] = tested on: EKVX NSCLC
[54] = tested on: NCI/ADR-RES ovarian
[55] = tested on: NCI-H522 lung
[56] = tested on: HS 578T breast
[57] = tested on: MCF7 breast
[58] = tested on: MDA-MB-435
[59] = tested on: DU-145 prostate
[60] = tested on: RXF 393 renal
[61] = tested on: KM12 colon
[62] = tested on: SF-539 CNS
[63] = tested on: PC-3 prostate
[64] = tested on: T-47D breast
[65] = tested on: MDA-N
[66] = tested on: MDA-MB-231 breast

Compound: CCCCCCCC/C=C\CCCCCCCC(=O)NCCN(CCN)C(=O)CCCCCCC/C=C\CCCCCCCC
- TGI [1]: > 100 µM
- TGI [2]: > 100 µM
- TGI [3]: > 100 µM
- TGI [4]: > 100 µM
- TGI [5]: > 100 µM
- TGI [6]: > 100 µM
- TGI [7]: > 100 µM
- TGI [8]: > 100 µM
- TGI [9]: > 100 µM
- TGI [10]: > 100 µM
- TGI [11]: > 100 µM
- TGI [12]: > 100 µM
- TGI [13]: > 100 µM
- TGI [14]: > 100 µM
- TGI [15]: > 100 µM
- TGI [16]: > 100 µM
- TGI [17]: > 100 µM
- TGI [18]: > 100 µM
- TGI [19]: > 100 µM
- TGI [20]: > 100 µM
- TGI [21]: > 100 µM
- TGI [22]: > 100 µM
- TGI [23]: > 100 µM
- TGI [24]: > 100 µM
- TGI [25]: > 100 µM
- TGI [26]: > 100 µM
- TGI [27]: > 100 µM
- TGI [28]: > 100 µM
- TGI [29]: > 100 µM
- TGI [30]: > 100 µM
- TGI [31]: > 100 µM
- TGI [32]: > 100 µM
- TGI [33]: > 100 µM
- TGI [34]: > 100 µM
- TGI [35]: > 100 µM
- TGI [36]: > 100 µM
- TGI [37]: > 100 µM
- TGI [38]: > 100 µM
- TGI [39]: > 100 µM
- TGI [40]: > 100 µM
- TGI [41]: > 100 µM
- TGI [42]: > 100 µM
- TGI [43]: > 100 µM
- TGI [44]: > 100 µM
- TGI [45]: > 100 µM
- TGI [46]: > 100 µM
- TGI [47]: > 100 µM
- TGI [48]: > 100 µM
- TGI [49]: > 100 µM

Compound: COc1cc2c(c3c1c(=O)c1ccccc1n3C)C=CC1(CCCCC1)O2
- TGI [1]: > 10 µM
- TGI [50]: 8.46 µM
- TGI [3]: > 10 µM
- TGI [51]: 9.69 µM
- TGI [4]: > 10 µM
- TGI [5]: > 10 µM
- TGI [6]: > 10 µM
- TGI [7]: 4.43 µM
- TGI [8]: > 10 µM
- TGI [9]: > 10 µM
- TGI [10]: > 10 µM
- TGI [11]: 9.77 µM
- TGI [12]: 7.92 µM
- TGI [13]: > 10 µM
- TGI [52]: > 8.59 µM
- TGI [53]: > 10 µM
- TGI [14]: > 10 µM
- TGI [15]: > 6.15 µM
- TGI [16]: > 10 µM
- TGI [54]: > 10 µM
- TGI [17]: > 9.61 µM
- TGI [55]: > 10 µM
- TGI [56]: 7.49 µM
- TGI [18]: > 10 µM
- TGI [19]: > 10 µM
- TGI [57]: > 9.55 µM
- TGI [20]: > 10 µM
- TGI [21]: > 10 µM
- TGI [58]: 6.42 µM
- TGI [22]: 9.86 µM
- TGI [23]: 6.39 µM
- TGI [59]: > 10 µM
- TGI [24]: > 2.29 µM
- TGI [25]: > 10 µM
- TGI [26]: > 10 µM
- TGI [27]: > 10 µM
- TGI [29]: > 10 µM
- TGI [30]: > 10 µM
- TGI [31]: > 5.04 µM
- TGI [34]: 0.255 µM
- TGI [60]: 2.98 µM
- TGI [61]: > 2.21 µM
- TGI [35]: > 10 µM
- TGI [36]: > 10 µM
- TGI [37]: 4.7 µM
- TGI [38]: > 10 µM
- TGI [39]: > 10 µM
- TGI [40]: > 10 µM
- TGI [62]: > 7.22 µM
- TGI [41]: > 10 µM
- TGI [42]: 6.36 µM
- TGI [63]: > 10 µM
- TGI [64]: > 10 µM
- TGI [45]: > 9.54 µM
- TGI [65]: 8.08 µM
- TGI [46]: > 10 µM
- TGI [48]: > 10 µM
- TGI [66]: > 10 µM
- TGI [49]: > 10 µM

Reference: PubChem BioAssay (NCI)
